Source: US20230339937A1, “CONDENSED RING COMPOUNDS THAT INHIBIT H-PGDS” (SATO PHARMACEUTICAL CO., LTD., priority 2020, published 2023)

Target: T1, Recombinant human H-PGDS (Homo sapiens, UniProt O60760)
T1 construct: made in house; host or cells: E. coli
Experiment: H-PGDS inhibitory activity (prostaglandin D2 production from prostaglandin H2, measured by LC-MS/MS)
Format: biochemical
Conditions: recombinant human H-PGDS 1.0 nM expressed in E. coli; prostaglandin H2 25 μM; preincubated 15 minutes on ice, reacted on ice for 1 minute; concentration that inhibits prostaglandin D2 production by 50%
Procedure: The H-PGDS inhibitory activity of each Example compound was measured according to the method reported by LIN, Jiang. et al. (NO 2007/041634).
Recombinant human H-PGDS (final concentration: 1.0 nM) expressed in E. coli was mixed in an assay buffer containing 20 mM Tris-HCl (pH 8.0), 2 mM magnesium chloride, 2 mM reduced glutathione, and 0.5 mg/mL γ-globulin, and 150 μL of the mixture was dispensed into a 8-strip PCR tube (BM Equipment Co., Ltd.). Test compounds (Example compounds) (16.5 μL) at various concentrations dissolved in DMSO were added and the mixture was preincubated for 15 minutes on ice.
Prostaglandin H2 (final concentration: 25 μM) (Cayman Chemical) was dispensed into another 8-strip PCR tube, and the solvent was dried and solidified using a vacuum concentrator (Thermo Fisher Scientific). To the dried and solidified prostaglandin H2 was added 50 μL of the assay buffer containing H-PGDS and each test compound after the preincubation, and the mixture was reacted on ice for 1 minute. 45 μL of this mixture was added to 45 μL of a stop solution (50 mM aqueous citric acid solution containing iron chloride at a final concentration of 4 mg/mL) to stop the reaction. Then, the reaction solution was deproteinized, added to a 96 square deep well plate (SHONANMARUHACHI STEC Co., Ltd.), and the prostaglandin D2 concentration in the reaction solution was measured by LC-MS/MS. ACQUITY (registered trademark) TQD (Waters) was used as a measuring instrument.
Prostaglandin Da production activity (f) in the group with each test compound when a value obtained by subtracting the amount of production of prostaglandin D2 in the group without enzyme, which is non-specific production of prostaglandin D2, from the amount of production of prostaglandin Da in the group without test compound (DMSO-addition group) in each 8-strip PCR tube is 100% was calculated.

T1 sequence (O60760 whole entry): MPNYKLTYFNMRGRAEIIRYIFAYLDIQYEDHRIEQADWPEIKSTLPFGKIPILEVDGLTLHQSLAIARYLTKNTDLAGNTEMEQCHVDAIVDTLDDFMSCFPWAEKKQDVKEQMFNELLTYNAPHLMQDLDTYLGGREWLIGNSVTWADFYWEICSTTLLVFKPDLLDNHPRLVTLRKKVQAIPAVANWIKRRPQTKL

Compound	IC50 [nM]
CC(C)(O)[C@H]1CC[C@H](NC(=O)c2ccc(-c3nccc4sccc34)cc2)CC1 [Example 63, N-[trans-4-(2-hydroxypropan-2-yl)cyclohexyl]-4-(thieno[3,2-c]pyridin-4-yl)benzamide]	1.5
Cc1nn(C)c(C)c1CNC(=O)c1ccc(-c2nccc3[nH]ccc23)cc1 [Example 40, 4-(1H-pyrrolo[3,2-c]pyridin-4-yl)-N-[(1,3,5-trimethyl-1H-pyrazol-4-yl)methyl] benzamide]	0.89
Cc1cc2occc2c(-c2ccc(C(=O)N[C@H]3CC[C@H](OCC(C)(C)O)CC3)cc2)n1 [Example 342, N-[trans-4-(2-hydroxy-2-methylpropoxy)cyclohexyl]-4-(6-methylfuro[3,2-c]pyridin-4-yl)benzamide]	3
CC(C)(O)[C@H]1CC[C@H](NC(=O)c2ccc(-c3ncc(C(N)=O)c4occc34)cc2)CC1 [Example 140, 4-(4-([trans-4-(2-hydroxypropan-2-yl)cyclohexyl]carbamoyl)phenyl)furo[3,2-c]pyridine-7-carboxamide]	224
O=C(NC12CC(O)(C1)C2)c1ccc(-c2nccc3occc23)cc1 [Example 278, 4-(furo[3,2-c]pyridin-4-yl)-N-(3-hydroxybicyclo[1.1.1]pentan-1-yl)benzamide]	3.3
O=C(N[C@H]1CC[C@H](O)CC1)c1ccc(-c2nccc3[nH]ccc23)cc1 [Example 337, N-(trans-4-hydroxycyclohexyl)-4-(1H-pyrrolo[3,2-c]pyridin-4-yl)benzamide]	0.44
C=Cc1cnc(-c2ccc(C(=O)N[C@H]3CC[C@H](C(C)(C)O)CC3)cc2)c2ccoc12 [Example 137, N-[trans-4-(2-hydroxypropan-2-yl)cyclohexyl]-4-(7-vinylfuro[3,2-c]pyridin-4-yl)benzamide]	12
O=C(Nc1ccccn1)c1ccc(-c2nccc3occc23)cc1 [Example 107, 4-(furo[3,2-c]pyridin-4-yl)-N-(pyridin-2-yl)benzamide]	19
O=C(Nc1cccnc1)c1ccc(-c2nccc3occc23)cc1 [Example 103, 4-(furo[3,2-c]pyridin-4-yl)-N-(pyridin-3-yl)benzamide]	2.1
CCOCCNC(=O)c1ccc(-c2nccc3occc23)cc1 [Example 80, N-(2-ethoxyethyl)-4-(furo[3,2-c]pyridin-4-yl)benzamide]	32
O=C(N[C@H]1CC[C@H](O)CC1)c1ccc(-c2nccc3sccc23)cc1 [Example 341, N-(trans-4-hydroxycyclohexyl)-4-(thieno[3,2-c]pyridin-4-yl)benzamide]	2.4
CCCCNC(=O)c1ccc(-c2nccc3occc23)cc1 [Example 75, N-butyl-4-(furo[3,2-c]pyridin-4-yl)benzamide]	20
CCc1cc2occc2c(-c2ccc(C(=O)N[C@H]3CC[C@H](C(C)(C)O)CC3)cc2)n1 [Example 314, 4-(6-ethylfuro[3,2-c]pyridin-4-yl)-N-[trans-4-(2-hydroxypropan-2-yl)cyclohexyl]benzamide]	70
O=C(N[C@H]1CC[C@H](NC2COC2)CC1)c1ccc(-c2nccc3occc23)cc1 [Example 295, 4-(furo[3,2-c]pyridin-4-yl)-N-[trans-4-(oxetan-3-ylamino)cyclohexyl]benzamide]	2.1
COCCO[C@H]1CC[C@H](NC(=O)c2ccc(-c3nccc4occc34)cc2)CC1 [Example 311, 4-(furo[3,2-c]pyridin-4-yl)-N-[trans-4-(2-methoxyethoxy)cyclohexyl]benzamide]	2.5
CC(C)(O)CNC(=O)c1ccc(-c2nccc3[nH]ccc23)cc1 [Example 32, N-(2-hydroxy-2-methylpropyl)-4-(1H-pyrrolo[3,2-c]pyridin-4-yl)benzamide]	1.5
N#CC12CCC(NC(=O)c3ccc(-c4nccc5occc45)cc3)(CC1)CC2 [Example 351, N-(4-cyanobicyclo[2.2.2]octan-1-yl)-4-(furo[3,2-c]pyridin-4-yl)benzamide]	1.3

Continued, values first:

IC50 [nM]	Compound
1.6	CCC(=O)N1CCC(NC(=O)c2ccc(-c3nccc4occc34)cc2)CC1 [Example 234, 4-(furo[3,2-c]pyridin-4-yl)-N-(1-propionylpiperidin-4-yl)benzamide]
1.1	CC(C)(O)c1cnc(N2CC[C@H](NC(=O)c3ccc(-c4nccc5occc45)cc3)C2)nc1 [Example 200, (S)-4-(furo[3,2-c]pyridin-4-yl)-N-{1-[5-(2-hydroxypropan-2-yl)pyrimidin-2-yl]pyrrolidin-3-yl}benzamide]
3.4	O=C(NC1CCNCC1)c1ccc(-c2nccc3occc23)cc1 [Example 142, 4-(furo[3,2-c]pyridin-4-yl)-N-(piperidin-4-yl)benzamide]
2.3	CC(=O)N1CCC(NC(=O)c2ccc(-c3nccc4occc34)cc2)CC1 [Example 186, N-(1-acetylpiperidin-4-yl)-4-(furo[3,2-c]pyridin-4-yl)benzamide]
9	O=C(NCc1ccccc1CO)c1ccc(-c2nccc3occc23)cc1 [Example 65, 4-(furo[3,2-c]pyridin-4-yl)-N-[2-(hydroxymethyl)benzyl]benzamide]
2.2	CC1(C)CC(O)CC(NC(=O)c2ccc(-c3nccc4occc34)cc2)C1 (stereo not shown) [Example 280, 4-(furo[3,2-c]pyridin-4-yl)-N-(5-hydroxy-3,3-dimethylcyclohexyl)benzamide]
1.3	O=C(NC1CCN(c2ccnc(F)c2)CC1)c1ccc(-c2nccc3occc23)cc1 [Example 159, N-[1-(2-fluoropyridin-4-yl)piperidin-4-yl]-4-(furo[3,2-c]pyridin-4-yl)benzamide]
1	O=C(N[C@H]1CCN(c2ncc(CO)cn2)C1)c1ccc(-c2nccc3occc23)cc1 [Example 193, (S)-4-(furo[3,2-c]pyridin-4-yl)-N-{1-[5-(hydroxymethyl)pyrimidin-2-yl]pyrrolidin-3-yl}benzamide]
1.6	Cc1cnc(N2CCC(NC(=O)c3ccc(-c4nccc5occc45)cc3)CC2)nc1 [Example 156, 4-(furo[3,2-c]pyridin-4-yl)-N-[1-(5-methylpyrimidin-2-yl)piperidin-4-yl]benzamide]
1.8	O=C(NC1CCN(C(=O)CC(F)(F)F)CC1)c1ccc(-c2nccc3occc23)cc1 [Example 246, 4-(furo[3,2-c]pyridin-4-yl)-N-[1-(3,3,3-trifluoropropanoyl)piperidin-4-yl]benzamide]
2.6	COc1cc(OC)nc(N2CCC(NC(=O)c3ccc(-c4nccc5occc45)cc3)CC2)n1 [Example 163]
1.9	O=C(NC1CCN(c2ccncn2)CC1)c1ccc(-c2nccc3occc23)cc1 [Example 171, 4-(furo[3,2-c]pyridin-4-yl)-N-[1-(pyrimidin-4-yl)piperidin-4-yl]benzamide]
1.8	O=C(N[C@@H]1COCCN(c2ncccn2)C1)c1ccc(-c2nccc3occc23)cc1 [Example 224, (S)-4-(furo[3,2-c]pyridin-4-yl)-N-[4-(pyrimidin-2-yl)-1,4-oxazepan-6-yl]benzamide]
3.3	O=C(N[C@H]1CC[C@H](CO)CC1)c1ccc(-c2nccc3occc23)cc1 [Example 120, 4-(furo[3,2-c]pyridin-4-yl)-N-[trans-4-(hydroxymethyl)cyclohexyl]benzamide]
0.93	O=C(N[C@H]1CC[C@H](OCC2(O)CC2)CC1)c1ccc(-c2nccc3occc23)cc1 [Example 258, 4-(furo[3,2-c]pyridin-4-yl)-N-{trans-4-[(1-hydroxycyclopropyl)methoxy]cyclohexyl}benzamide]
1.8	CO[C@H]1CCC[C@@H](NC(=O)c2ccc(-c3nccc4occc34)cc2)C1 (relative stereo) [Example 275, 4-(furo[3,2-c]pyridin-4-yl)-N-(cis-3-methoxycyclohexyl)benzamide]
1.1	O=C(N[C@@H]1CN(c2ncc(CO)cn2)C[C@@H]1F)c1ccc(-c2nccc3occc23)cc1 [Example 204, N-{(3R,4S)-4-fluoro-1-[5-(hydroxymethyl)pyrimidin-2-yl]pyrrolidin-3-yl}-4-(furo[3,2-c]pyridin-4-yl)benzamide]
14	O=C(NCC1CCCC1)c1ccc(-c2nccc3occc23)cc1 [Example 84, N-(cyclopenthyl-methyl)-4-(furo[3,2-c]pyridin-4-yl)benzamide]
1.2	CCn1nnnc1N1CCC(NC(=O)c2ccc(-c3nccc4occc34)cc2)CC1 [Example 239, N-[1-(1-ethyl-1H-tetrazol-5-yl)piperidin-4-yl]-4-(furo[3,2-c]pyridin-4-yl)benzamide]
1.3	CC(C)(O)C1CC2(CC(NC(=O)c3ccc(-c4nccc5occc45)cc3)C2)C1 (stereo not shown) [Example 122, 4-(furo[3,2-c]pyridin-4-yl)-N-[6-(2-hydroxypropan-2-yl)spiro[3.3]heptan-2-yl]benzamide]
